Values after ≈ are worked out from the molar mass of the structure shown. Like-named read-outs stand apart in the source and are kept apart here.
System: Mycobacterium tuberculosis strain H37Rv
Test: Test 2: MIC determination against M. tuberculosis, resazurin fluorescence
Type: cell-based
Conditions: Test 2, M. tuberculosis H37Rv; for MIC90: read-out: Bacterial activity MIC90; for IC50: read-out: Bacterial activity pMIC50 (converted)
[1] = Mycobacterium tuberculosis, H37RV

Structure (SMILES)	MIC90 [1] [µM]	IC50 [1] [pM]	Bacterial activity pMIC50	MIC90 [µM]
CCc1nc2ncc(C)cn2c1C(=O)NCc1ccc(-c2nc3n(n2)CCC(F)C3)cc1 (stereo not drawn) [Compound 96]	0.094 (≈ 0.0407 µg/mL)	33900	–	–
CCc1nc2ncc(C)cn2c1C(=O)NCc1ccc(-c2nc3n(n2)CCC(C)C3)c(F)c1 (stereo not drawn) [Compound 97]	0.057 (≈ 0.0255 µg/mL)	19100	–	–
CCOC1CCn2nc(-c3ccc(CNC(=O)c4c(CC)nc5ncc(C)cn45)cc3)nc2C1 (stereo not drawn) [Compound 98]	0.11 (≈ 0.0506 µg/mL)	27500	–	–
CCc1nc2nc(C)ccn2c1C(=O)NCc1ccc(-c2nc3n(n2)CCC(C(F)F)C3)cc1 (stereo not drawn) [Compound 99]	0.22 (≈ 0.102 µg/mL)	70800	–	–
Cc1cnc2nc(C(C)C)c(C(=O)NCc3ccc(-c4cn5c(n4)CC(C(F)(F)F)CC5)cc3)n2c1 (stereo not drawn) [Compound 100]	0.2 (≈ 0.0993 µg/mL)	61700	–	–
O=C(NCc1cnc(-c2cn3c(n2)CC(C(F)(F)F)CC3)c(F)c1)c1c(C(F)(F)F)nc2ccccn12 (stereo not drawn) [Compound 101]	3.95 (≈ 2.08 µg/mL)	2e+06	–	–
CCc1nc2ncc(C)cn2c1C(=O)NCc1ccc(-c2nc3n(n2)CCC(OC)C3)c(F)c1 (stereo not drawn) [Compound 107]	0.33 (≈ 0.153 µg/mL)	135000	–	–
CCc1nc2ncc(C)cn2c1C(=O)NCc1ccc(-c2cn3c(n2)CC(CC)CC3)cc1 (stereo not drawn) [Compound 109]	–	–	8.04	0.024 (≈ 0.0106 µg/mL)
CCc1nc2ncc(C)cn2c1C(=O)NCc1ccc(-c2nc3n(n2)CCC(CC(F)(F)F)C3)cc1 (stereo not drawn) [Compound 110]	0.016 (≈ 0.00796 µg/mL)	5890	–	–
CCc1nc2ncc(OC)cn2c1C(=O)NCc1ccc(-c2cn3c(n2)C[C@H](C(F)(F)F)CC3)cc1 [Compound 111]	0.012 (≈ 0.00598 µg/mL)	4680	–	–
CCc1nc2ncc(OC)cn2c1C(=O)NCc1ccc(-c2cn3c(n2)C[C@@H](C(F)(F)F)CC3)cc1 [Compound 112]	0.027 (≈ 0.0135 µg/mL)	8510	–	–
CCc1nc2cc(F)ccn2c1C(=O)NCc1ccc(-c2cn3c(n2)C[C@@H](C(F)(F)F)CC3)cc1 [Compound 113]	0.034 (≈ 0.0165 µg/mL)	12900	–	–
CCc1nc2cc(F)ccn2c1C(=O)NCc1ccc(-c2cn3c(n2)C[C@H](C(F)(F)F)CC3)cc1 [Compound 114]	0.032 (≈ 0.0155 µg/mL)	7590	–	–
CCc1nc2ncc(C)cn2c1C(=O)NCc1ccc(-c2nc3n(n2)CCC(C)(COC)C3)cc1 (stereo not drawn) [Compound 115]	0.096 (≈ 0.0455 µg/mL)	24500	–	–
CCc1nc2ncc(C)cn2c1C(=O)NCc1ccc(-c2cn3c(n2)CCC(C(F)(F)F)C3)cc1 (stereo not drawn) [Compound 116]	0.0097 (≈ 0.00468 µg/mL)	4570	–	–
CCc1nc2ncc(C)cn2c1C(=O)NCc1ccc(-c2cn3c(n2)CC(C(F)(F)F)CC3)c(F)c1 (stereo not drawn) [Compound 117]	0.077 (≈ 0.0385 µg/mL)	3090	–	–
CCc1nc2ncc(OC)cn2c1C(=O)NCc1ccc(-c2nc3n(n2)CCCC3)cc1 [Compound 119]	–	–	7.72	0.052 (≈ 0.0224 µg/mL)
CCc1nc2ncc(C)cn2c1C(=O)NCc1ccc(-c2cn3c(n2)CC(C(F)(F)F)CC3)c(C)c1 (stereo not drawn) [Compound 121]	0.035 (≈ 0.0174 µg/mL)	8710	–	–
CCc1nc2ncc(C)cn2c1C(=O)NCc1cnc(-c2cn3c(n2)CC(C(F)(F)F)CC3)cc1C (stereo not drawn) [Compound 122]	0.21 (≈ 0.104 µg/mL)	43700	–	–
CCc1nc2ncc(C)cn2c1C(=O)NCc1cnc(-c2cn3c(n2)CC(C(F)(F)F)CC3)c(C)c1 (stereo not drawn) [Compound 123]	> 0.5	> 501000	–	–
CCc1nc2ncc(C)cn2c1C(=O)NCc1ccc(-c2nc3n(n2)CC(C)CC3)cc1 (stereo not drawn) [Compound 125]	0.04 (≈ 0.0172 µg/mL)	11200	–	–
CCc1nc2ccccn2c1C(=O)NCc1ccc(-c2nc3n(n2)CCC(C(C)(F)F)C3)cc1 (stereo not drawn) [Compound 133]	0.051 (≈ 0.0237 µg/mL)	11700	–	–
CCc1nc2n(c1C(=O)NCc1ccc(-c3nc4n(n3)CCC(C(C)(F)F)C4)cc1)CCCC2 (stereo not drawn) [Compound 134]	0.12 (≈ 0.0562 µg/mL)	25700	–	–
CCc1nc2nc(CN)ccn2c1C(=O)NCc1ccc(-c2nc3n(n2)CCC(C(F)(F)F)C3)cc1 (stereo not drawn) [Compound 138]	> 0.5	> 501000	–	–
CCc1nc2n(c1C(=O)NCc1ccc(-c3nc4n(n3)CC[C@@H](C(F)(F)F)C4)cc1)C[C@H](OC)CC2 [Compound 140]	0.33 (≈ 0.166 µg/mL)	115000	–	–
CCc1nc2n(c1C(=O)NCc1ccc(-c3nc4n(n3)CC[C@H](C(F)(F)F)C4)cc1)C[C@H](OC)CC2 [Compound 141]	> 0.5	166000	–	–
CCc1nc2n(c1C(=O)NCc1ccc(-c3cn4c(n3)C[C@@H](C(F)(F)F)CC4)cc1)CCCC2 [Compound 142]	0.097 (≈ 0.0457 µg/mL)	22900	–	–
CCc1nc2ncc(C)cn2c1C(=O)NCc1ccc(-c2nc3n(n2)CCC(COC)C3)c(F)c1 (stereo not drawn) [Compound 143]	0.092 (≈ 0.0439 µg/mL)	33100	–	–
CCc1nc2cc(F)ccn2c1C(=O)NCc1ccc(-c2nc3n(n2)CCC(C(C)(F)F)C3)cc1 (stereo not drawn) [Compound 145]	0.041 (≈ 0.0198 µg/mL)	11500	–	–
CCc1nc2ncc(C)cn2c1C(=O)NCc1ccc(-c2cc3n(n2)CCCC3)c(C)n1 [Compound 146]	0.15 (≈ 0.0644 µg/mL)	42700	–	–

Reference: patent US20250034171A1, “IMIDAZOPYRIDINE AMIDES AND RELATED COMPOUNDS FOR USE IN THE TREATMENT OF BACTERIAL INFECTIONS” (priority 2021, published 2025)
